Laboratory results from US9833497B2, “Human originated EGF domain proteins and use of the same” (CHENGDU SOURCEBIO LIMITED-LIABILITY COMPANY, priority 2013, dated 2017).

Assays:
Assay type in all cases: cell-based
E. coli DH5α = assay: Antibacterial activity: MIC and growth curve against E. coli DH5α in 96-well plate; details: minimal inhibitory concentration against E. coli DH5α; 96-well plate, 5×10^5 CFU/mL, 37° C., judged after 8 h
Procedure, shortened: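 MIC taken as lowest protein level with no bacterial growth, tracked by A600 every 30 min during 37 °C, 175 rpm culture. Two-fold protein series 50-12.5 μg/mL final, triplicate wells, against 5×10^5 CFU/mL of LB-washed mid-log cells.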

E. coli BL21 = assay: MIC against Gram-negative bacteria: E. coli BL21; details: for MIC (μg/mL) E. coli BL21 / MIC E. coli BL21 / MIC against E. coli BL21: 5×10^5 CFU/mL
Procedure, shortened: (§1)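 Inocula prepared by growing LB cultures at 37° C to 0.5 McFarland, centrifuging at 4000×g, and resuspending in fresh medium. Final density 5×10^5 CFU/mL per well with two-fold dilutions of purified EGF domain protein; shaking incubation at 37° C.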

Pseudomonas aeruginosa = assay: MIC against Gram-negative bacteria: Pseudomonas aeruginosa; details: for MIC (μg/mL) P. aeruginosa / MIC P. aeruginosa / MIC against P. aeruginosa: 5×10^5 CFU/mL
Procedure, shortened: as §1

Klebsiella pneumonia = assay: MIC against Gram-negative bacteria: Klebsiella pneumonia; details: for MIC (μg/mL) K. pneumonia / MIC K. pneumonia / MIC against K. pneumonia: 5×10^5 CFU/mL
Procedure, shortened: as §1

Enterobacter cloacae = assay: MIC against Gram-negative bacteria: Enterobacter cloacae; details: for MIC (μg/mL) E. cloacae / MIC E. cloacae / MIC against E. cloacae: 5×10^5 CFU/mL
Procedure, shortened: as §1

Aeromonas hydrophila = assay: MIC against Gram-negative bacteria: Aeromonas hydrophila; details: for MIC (μg/mL) A. hydrophila / MIC A. hydrophila / MIC against A. hydrophila: 5×10^5 CFU/mL
Procedure, shortened: as §1

Citrobacter diversus = assay: MIC against Gram-negative bacteria: Citrobacter diversus; details: for MIC (μg/mL) C. diversus / MIC C. diversus / MIC against C. diversus: 5×10^5 CFU/mL
Procedure, shortened: as §1

Moraxella catarrhalis = assay: MIC against Gram-negative bacteria: Moraxella catarrhalis; details: for MIC (μg/mL) M. catarrhalis / MIC M. catarrhalis / MIC against M. catarrhalis: 5×10^5 CFU/mL
Procedure, shortened: as §1

Proteus mirabilis = assay: MIC against Gram-negative bacteria: Proteus mirabilis; details: for MIC (μg/mL) P. mirabilis / MIC P. mirabilis / MIC against P. mirabilis: 5×10^5 CFU/mL
Procedure, shortened: as §1

Proteus vulgaris = assay: MIC against Gram-negative bacteria: Proteus vulgaris; details: for MIC (μg/mL) P. vulgaris / MIC P. vulgaris / MIC against P. vulgaris: 5×10^5 CFU/mL
Procedure, shortened: as §1

Serratia marcescens = assay: MIC against Gram-negative bacteria: Serratia marcescens; details: for MIC (μg/mL) S. marcescens / MIC S. marcescens / MIC against S. marcescens: 5×10^5 CFU/mL
Procedure, shortened: as §1

[1] = E. coli BL21, 10 h cultivation at 37° C.
[2] = P. aeruginosa, 10 h cultivation at 37° C.
[3] = K. pneumonia, 10 h cultivation at 37° C.
[4] = E. cloacae, 10 h cultivation at 37° C.
[5] = A. hydrophila, 10 h cultivation at 37° C.
[6] = C. diversus, 10 h cultivation at 37° C.
[7] = M. catarrhalis, 10 h cultivation at 37° C.
[8] = P. mirabilis, 10 h cultivation at 37° C.
[9] = P. vulgaris, 10 h cultivation at 37° C.
[10] = S. marcescens, 10 h cultivation at 37° C.
[11] = E. coli BL21, 96-well plate, 37° C., 10 h
[12] = Pseudomonas aeruginosa, 96-well plate, 37° C., 10 h
[13] = Klebsiella pneumonia, 96-well plate, 37° C., 10 h
[14] = Enterobacter cloacae, 96-well plate, 37° C., 10 h
[15] = Aeromonas hydrophila, 96-well plate, 37° C., 10 h
[16] = Citrobacter diversus, 96-well plate, 37° C., 10 h
[17] = Moraxella catarrhalis, 96-well plate, 37° C., 10 h
[18] = Proteus mirabilis, 96-well plate, 37° C., 10 h
[19] = Proteus vulgaris, 96-well plate, 37° C., 10 h
[20] = Serratia marcescens, 96-well plate, 37° C., 10 h

PRT821 (DVDECRTHNGGCQHRCVNTPGSYLCECKPGFRLHTDSRTCL; listed as Homo sapiens)
50 µg/mL: MIC (μg/mL) A. hydrophila (Aeromonas hydrophila; [5]) | MIC (μg/mL) P. mirabilis (Proteus mirabilis; [8]) | MIC (μg/mL) S. marcescens (Serratia marcescens; [10])
12.5 µg/mL: MIC (E. coli DH5α) | MIC (μg/mL) E. coli BL21 (E. coli BL21; [1]) | MIC (μg/mL) P. aeruginosa (Pseudomonas aeruginosa; [2]) | MIC (μg/mL) M. catarrhalis (Moraxella catarrhalis; [7]) | MIC (μg/mL) P. vulgaris (Proteus vulgaris; [9])
25 µg/mL: MIC (μg/mL) K. pneumonia (Klebsiella pneumonia; [3]) | MIC (μg/mL) E. cloacae (Enterobacter cloacae; [4]) | MIC (μg/mL) C. diversus (Citrobacter diversus; [6])

PRT671 (RVVVCPLPCMNGGQCSSRNQCLCPPDFTGRFCQ; listed as Homo sapiens)
50 µg/mL: MIC (E. coli DH5α)
12.5 µg/mL: MIC E. coli BL21 (E. coli BL21; 96-well plate, 37° C., 10 h) | MIC P. aeruginosa (Pseudomonas aeruginosa; 96-well plate, 37° C., 10 h) | MIC K. pneumonia (Klebsiella pneumonia; 96-well plate, 37° C., 10 h) | MIC E. cloacae (Enterobacter cloacae; 96-well plate, 37° C., 10 h) | MIC C. diversus (Citrobacter diversus; 96-well plate, 37° C., 10 h) | MIC P. mirabilis (Proteus mirabilis; 96-well plate, 37° C., 10 h) | MIC S. marcescens (Serratia marcescens; 96-well plate, 37° C., 10 h)
25 µg/mL: MIC A. hydrophila (Aeromonas hydrophila; 96-well plate, 37° C., 10 h) | MIC M. catarrhalis (Moraxella catarrhalis; 96-well plate, 37° C., 10 h) | MIC P. vulgaris (Proteus vulgaris; 96-well plate, 37° C., 10 h)

PRT1439 (EEDECAKPDRGGCEQRCLNTLGSYQCACEPGYELGPDRRSCE; listed as Homo sapiens)
12.5 µg/mL: MIC against E. coli BL21 (E. coli BL21; [1]) | MIC against K. pneumonia (Klebsiella pneumonia; Klebsiella pneumonia, 10 h cultivation at 37° C.) | MIC against A. hydrophila (Aeromonas hydrophila; Aeromonas hydrophila, 10 h cultivation at 37° C.) | MIC against M. catarrhalis (Moraxella catarrhalis; Moraxella catarrhalis, 10 h cultivation at 37° C.) | MIC against P. vulgaris (Proteus vulgaris; Proteus vulgaris, 10 h cultivation at 37° C.)
50 µg/mL: MIC (E. coli DH5α) | MIC against P. aeruginosa (Pseudomonas aeruginosa; Pseudomonas aeruginosa, 10 h cultivation at 37° C.) | MIC against E. cloacae (Enterobacter cloacae; Enterobacter cloacae, 10 h cultivation at 37° C.) | MIC against C. diversus (Citrobacter diversus; Citrobacter diversus, 10 h cultivation at 37° C.) | MIC against P. mirabilis (Proteus mirabilis; Proteus mirabilis, 10 h cultivation at 37° C.) | MIC against S. marcescens (Serratia marcescens; Serratia marcescens, 10 h cultivation at 37° C.)

PRT632 (CKCHPLGSQEDQCHPKTGQCTCRPGVTGQACDRCQLGFFGFSIKGCRA; listed as Homo sapiens)
12.5 µg/mL: MIC (E. coli DH5α) | MIC P. aeruginosa (Pseudomonas aeruginosa; 96-well plate, 37° C., 10 h) | MIC E. cloacae (Enterobacter cloacae; 96-well plate, 37° C., 10 h) | MIC P. mirabilis (Proteus mirabilis; 96-well plate, 37° C., 10 h)
25 µg/mL: MIC E. coli BL21 (E. coli BL21; 96-well plate, 37° C., 10 h) | MIC K. pneumonia (Klebsiella pneumonia; 96-well plate, 37° C., 10 h) | MIC A. hydrophila (Aeromonas hydrophila; 96-well plate, 37° C., 10 h) | MIC M. catarrhalis (Moraxella catarrhalis; 96-well plate, 37° C., 10 h) | MIC P. vulgaris (Proteus vulgaris; 96-well plate, 37° C., 10 h)
50 µg/mL: MIC C. diversus (Citrobacter diversus; 96-well plate, 37° C., 10 h) | MIC S. marcescens (Serratia marcescens; 96-well plate, 37° C., 10 h)

PRT848 (CQCNNRSASCDALTGACLNCQENSKGNHCEECKEGFYQSPDATKECLR; listed as Homo sapiens)
50 µg/mL: MIC (μg/mL) E. cloacae (Enterobacter cloacae; [4]) | MIC (μg/mL) C. diversus (Citrobacter diversus; [6]) | MIC (μg/mL) P. mirabilis (Proteus mirabilis; [8])
12.5 µg/mL: MIC (μg/mL) E. coli BL21 (E. coli BL21; [1]) | MIC (μg/mL) A. hydrophila (Aeromonas hydrophila; [5]) | MIC (μg/mL) M. catarrhalis (Moraxella catarrhalis; [7]) | MIC (μg/mL) S. marcescens (Serratia marcescens; [10])
25 µg/mL: MIC (E. coli DH5α) | MIC (μg/mL) P. aeruginosa (Pseudomonas aeruginosa; [2]) | MIC (μg/mL) K. pneumonia (Klebsiella pneumonia; [3]) | MIC (μg/mL) P. vulgaris (Proteus vulgaris; [9])

PRT1297 (NACLSSPCKNNGTCTQDPVELYRCACPYSYKGKDCT; listed as Homo sapiens)
25 µg/mL: MIC against K. pneumonia (Klebsiella pneumonia; [13]) | MIC against C. diversus (Citrobacter diversus; [16]) | MIC against P. mirabilis (Proteus mirabilis; [18])
50 µg/mL: MIC against E. coli BL21 (E. coli BL21; [11]) | MIC against E. cloacae (Enterobacter cloacae; [14]) | MIC against M. catarrhalis (Moraxella catarrhalis; [17]) | MIC against S. marcescens (Serratia marcescens; [20])
12.5 µg/mL: MIC (E. coli DH5α) | MIC against P. aeruginosa (Pseudomonas aeruginosa; [12]) | MIC against A. hydrophila (Aeromonas hydrophila; [15]) | MIC against P. vulgaris (Proteus vulgaris; [19])

PRT843 (CQCNGHGDPRRGHCDNLSGLCFCQDHTEGAHCQLCSPGYYGDPRAGGSCFR; listed as Homo sapiens)
25 µg/mL: MIC (E. coli DH5α) | MIC (μg/mL) E. cloacae (Enterobacter cloacae; [4]) | MIC (μg/mL) C. diversus (Citrobacter diversus; [6]) | MIC (μg/mL) P. mirabilis (Proteus mirabilis; [8]) | MIC (μg/mL) P. vulgaris (Proteus vulgaris; [9])
50 µg/mL: MIC (μg/mL) A. hydrophila (Aeromonas hydrophila; [5]) | MIC (μg/mL) S. marcescens (Serratia marcescens; [10])
12.5 µg/mL: MIC (μg/mL) E. coli BL21 (E. coli BL21; [1]) | MIC (μg/mL) P. aeruginosa (Pseudomonas aeruginosa; [2]) | MIC (μg/mL) K. pneumonia (Klebsiella pneumonia; [3]) | MIC (μg/mL) M. catarrhalis (Moraxella catarrhalis; [7])

PRT1264 (DIDECGNELNGGCVHDCLNIPGNYRCTCFDGFMLAHDGHNCL; listed as Homo sapiens)
25 µg/mL: MIC against K. pneumonia (Klebsiella pneumonia; [13]) | MIC against A. hydrophila (Aeromonas hydrophila; [15])
50 µg/mL: MIC against E. coli BL21 (E. coli BL21; [11]) | MIC against M. catarrhalis (Moraxella catarrhalis; [17]) | MIC against P. vulgaris (Proteus vulgaris; [19])
12.5 µg/mL: MIC (E. coli DH5α) | MIC against P. aeruginosa (Pseudomonas aeruginosa; [12]) | MIC against E. cloacae (Enterobacter cloacae; [14]) | MIC against C. diversus (Citrobacter diversus; [16]) | MIC against P. mirabilis (Proteus mirabilis; [18]) | MIC against S. marcescens (Serratia marcescens; [20])

PRT1001 (EMTACHSGPCLNGGSCNPSPGGYYCTCPPSHTGPQCQ; listed as Homo sapiens)
50 µg/mL: MIC (E. coli BL21; [1]) | MIC (Klebsiella pneumonia; [3]) | MIC (Citrobacter diversus; [6]) | MIC (Serratia marcescens; [10])
25 µg/mL: MIC (Enterobacter cloacae; [4]) | MIC (Moraxella catarrhalis; [7]) | MIC (Proteus vulgaris; [9])
12.5 µg/mL: MIC (E. coli DH5α) | MIC (Pseudomonas aeruginosa; [2]) | MIC (Aeromonas hydrophila; [5]) | MIC (Proteus mirabilis; [8])

PRT60 (EVDECSRPNRGGCEQRCLNTLGSYKCSCDPGYELAPDKRRCE; listed as Homo sapiens)
25 µg/mL: MIC (μg/mL) M. catarrhalis (Moraxella catarrhalis; [17])
50 µg/mL: MIC (μg/mL) P. mirabilis (Proteus mirabilis; [18]) | MIC (μg/mL) S. marcescens (Serratia marcescens; [20])
12.5 µg/mL: MIC (E. coli DH5α) | MIC (μg/mL) E. coli BL21 (E. coli BL21; [11]) | MIC (μg/mL) P. aeruginosa (Pseudomonas aeruginosa; [12]) | MIC (μg/mL) K. pneumonia (Klebsiella pneumonia; [13]) | MIC (μg/mL) E. cloacae (Enterobacter cloacae; [14]) | MIC (μg/mL) A. hydrophila (Aeromonas hydrophila; [15]) | MIC (μg/mL) C. diversus (Citrobacter diversus; [16]) | MIC (μg/mL) P. vulgaris (Proteus vulgaris; [19])
